Experimental data published in PMC8011643 (Bioorganic & medicinal chemistry letters, 2019).
Where two headings read alike, the source gives them in different places.

Assays:
[1] = system: SK-HEP-1 hepatoma cells; test: SK-Hep-1 invasion/migration, live cell transwell assay; type: cell-based, human; conditions: for effect on SK-Hep-1 invasion in words: live cell transwell assay
[2] = target: CXCR5 human receptor; conditions: read-out: IC50 against CXCR5; previously reported; cited from earlier work
[3] = target: CXCR4 human receptor; conditions: read-out: IC50 against CXCR4; previously reported; cited from earlier work
[4] = target: CCR6 human receptor; conditions: read-out: IC50 against CCR6; previously reported; cited from earlier work
[5] = target: T1, human CXCR6 receptor (Homo sapiens, UniProt O00574); type: cell-based
[6] = target: T1, human CXCR6 receptor; test: Antagonism of CXCL16; type: cell-based; conditions: vs ML339
[7] = PAMPA permeability; type: in vitro ADME
[8] = system: SK-HEP-1 tumor
[9] = Solubility in aqueous buffer; type: physicochemical; conditions: pH range 5.0–7.4
[10] = Stability in mouse plasma; type: in vitro ADME
[11] = Stability in human plasma; type: in vitro ADME
[12] = system: human liver microsomes; test: Metabolic stability in human liver microsomes; type: in vitro ADME; conditions: within 1h
[13] = Plasma protein binding; type: in vitro ADME
[14] = Metabolic stability in mouse liver microsomes; type: in vitro ADME; conditions: within 1h
[15] = Rapid Assessment of Compound Exposure; type: in vivo, mouse

T1 sequence (O00574 whole entry): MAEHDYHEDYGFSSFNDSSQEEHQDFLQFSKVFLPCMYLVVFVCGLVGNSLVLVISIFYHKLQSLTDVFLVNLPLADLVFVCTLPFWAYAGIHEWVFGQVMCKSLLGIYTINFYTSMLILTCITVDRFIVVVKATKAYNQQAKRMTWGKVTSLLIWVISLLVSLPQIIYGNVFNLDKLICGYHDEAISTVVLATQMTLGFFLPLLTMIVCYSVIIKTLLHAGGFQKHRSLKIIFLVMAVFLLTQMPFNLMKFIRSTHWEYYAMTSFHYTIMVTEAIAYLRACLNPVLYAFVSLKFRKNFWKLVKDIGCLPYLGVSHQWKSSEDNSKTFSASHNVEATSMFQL

In the case of `O=C(CN1[C@@H]2CCC[C@H]1C[C@H](NC(=O)c1ccccc1)C2)Nc1ccccc1` [Compound 6], the “effect on SK-Hep-1 invasion in words” value [1] is reported as “had no effect”.
In the case of `COc1cc(C(=O)N[C@@H]2C[C@H]3CCC[C@@H](C2)N3CC(=O)Nc2ccccc2Cl)cc(OC)c1OC` [Compound 17], the IC50 [2] is given as > 80 µM, the IC50 [3] is given as > 80 µM and the IC50 [4] is given as > 80 µM.
With `COc1cc(C(=O)N[C@@H]2C[C@H]3CCC[C@@H](C2)N3Cc2ccccc2Cl)cc(OC)c1OC` [Compound 59] the “fold lower activity than compound 17” value ([5]; vs compound 17) was 48 fold.
In the case of `COc1cc(C(=O)N[C@@H]2C[C@H]3CCC[C@@H](C2)N3CC(=O)c2nc3ccccc3s2)cc(OC)c1OC` [Compound 72], the “fold loss in activity” value ([5]; carbonyl linkage, comparator not named) is reported as 100 fold.
With `COc1cc(C(=O)N[C@@H]2C[C@H]3CCC[C@@H](C2)N3Cc2nc3c(Cl)cccc3s2)cc(OC)c1OC` [Compound 73] the “effect on SK-Hep-1 invasion in words” value [1] was “inhibited invasion”.
With `COc1cc(C(=O)N[C@@H]2C[C@H]3CCC[C@@H](C2)N3Cc2nc3c(C(F)(F)F)cccc3s2)cc(OC)c1OC` [Compound 81] the “fold improvement in potency in cAMP assay” value [6] was ≥ 10 fold, the “PAMPA permeability in words” value [7] was “good PAMPA permeability” and the “SK-HEP-1 tumor growth vs vehicle in words” value ([8]; 30 mg/kg oral, Day 4 to Day 30, P < 0.0005) was “significantly inhibited”. The “SK-HEP-1 tumor growth vs vehicle in words” value ([8]; 60 mg/kg oral, Day 4 to Day 30, P < 0.0002) was “significantly inhibited”, the “toxicity to mice in words” value ([8]; 30 and 60 mg/kg, 30-day study) was “non-toxic” and the “cell viability in words” value ([1]; SK-HEP-1, 72 h) was “without loss in cell viability”. For the same compound, the EC50 [5] was 0.04 µM, the “fold improvement in potency in β-arrestin assay” value ([5]; vs ML339) was ≥ 10 fold and the solubility in words [9] was “good solubility”. For the same compound, the “stability in mouse plasma in words” value [10] was “excellent stability”, the “stability in human plasma in words” value [11] was “excellent stability” and the “metabolism in human liver microsomes in words” value [12] was “almost completely metabolized”. The “plasma protein binding in words” value [13] was “high plasma protein binding”, the “metabolism in mouse liver microsomes in words” value [14] was “almost completely metabolized” and the “exposure in RACE assay in words” value ([15]; 10 mg/kg oral dose, DMSO: Tw80: H2O (1:1:8)) was “good exposure”. For the same compound, the bioavailability in words ([15]; mice) was “good bioavailability”.
